Data on 26 compounds can be found in patent EP0365763A1, “Antiproliferative cyclic compounds” (priority 1988, dated 1990).

Assay [1] deals with E.coli thymidylate synthase (TS) (Escherichia coli, UniProt P0A884). In words: Thymidylate synthase inhibition constants against 5,10-methylene-tetrahydrofolate. The assay is classed as biochemical. As for the experimental part: (§1) Determination of Inhibition Constants Against 5,10-Methylene-Tetrahydrofolate
(§2) Thymidylate synthase inhibition constants K₁ have been determined by the following method. All assays were run at 25°C and initiated by the addition of thymidylate synthase ("TS"). […] All reaction mixtures contained 50 mM Tris at pH 7.8 (the final pH of the reaction was 7.6), 10 mM DTT (dithiothreitol), 1 mM EDTA (ethylenediaminetetraacetic acid), 25 mM MgCl₂, 15 mM H₂CO (formaldehyde) and 25 microM dUMP. When human or Leishmania TS was assayed, 100 micrograms/ml of BSA (bovine serum albumin) was present in the reactions. […] Charcoal was used to remove unreacted dUMP from the tritium release reaction mixtures and the resultant water was counted to determine the extent of reaction.

Assay [2] deals with L1210 murine leukemia (ATCC CCL 219). In words: Cellular growth in culture, MTT-tetrazolium reduction assay. Format: cell-based. The note with it: for IC50: Mus musculus, L1210, 72 h, read-out: IC50 FOR CELLS IN CULTURE L1210. As to the method: (§3) Cellular growth in the presence of the compounds in question was assessed using two cell lines, the Ll2l0 murine leukemia (ATCC CCL 219) and CCRF-CEM, a human lymphoblastic leukemia line of T-cell origin (ATCC CCL 119). Both lines were maintained in RPMI 1640 medium containing 5% heat-inactivated fetal bovine serum without antibiotics.
(§4) IC₅₀ values were determined in 150 microliter microcultures each containing 1500 (Ll2l0) or 4000 (CCRF-CEM) cells established in 96 well plates in growth medium supplemented with 50 IU/ml penicillin and 50 mcg/ml streptomycin. Growth was measured over 3 days (Ll2l0) or 5 days (CCRF-CEM) of continuous exposure to varying concentrations of each test compound added 4 h. after initial cell plating by the MTT-tetrazolium reduction assay of Mosmann (T. J. Immunol. Meth. 65, 55-63 (1983)) modified according to Alley et al. (Cancer Res. 48 589-601 (1988)). Water insoluble derivatives were dissolved in DMSO and diluted to a final concentration of 0.5% solvent in cell cultures.

Assay [3] deals with CCRF-CEM, a human lymphoblastic leukemia line of T-cell origin (ATCC CCL 119). Described as above. The assay is classed as cell-based. The note with it: for IC50: Homo sapiens, CCRF-CEM, 120 h, read-out: IC50 FOR CELLS IN CULTURE CCRF-CEM; for inhibition at this concentration, CCRF-CEM: at the highest concentration tested, 5 days. As for the experimental part: as §3, §4
Assay [4] concerns the target L. major thymidylate synthase (TS) (Leishmania major, UniProt P07382). In words: biochemical. As for the experimental part: as §1, §2
In assay [5] the target is Human thymidylate synthase (TS) (Homo sapiens, UniProt P04818). The assay can be described thus: Thymidylate synthase inhibition constants against 5,10-methylene-tetrahydrofolate. Format: biochemical. As to the method:
as §1
Thymidylate synthase inhibition constants K₁ have been determined by the following method. All assays were run at 25°C and initiated by the addition of thymidylate synthase ("TS"). […] All reaction mixtures contained 50 mM Tris at pH 7.8 (the final pH of the reaction was 7.6), 10 mM DTT (dithiothreitol), 1 mM EDTA (ethylenediaminetetraacetic acid), 25 mM MgCl₂, 15 mM H₂CO (formaldehyde) and 25 microM dUMP. When human or Leishmania TS was assayed, 100 micrograms/ml of BSA (bovine serum albumin) was present in the reactions.

The target in assay [6] is C.albicans thymidylate synthase (TS) (Candida albicans, UniProt P12461). Described as above. Format: biochemical. As for the experimental part: as §1, §2
Chain of C.albicans thymidylate synthase (TS) (P12461 whole entry): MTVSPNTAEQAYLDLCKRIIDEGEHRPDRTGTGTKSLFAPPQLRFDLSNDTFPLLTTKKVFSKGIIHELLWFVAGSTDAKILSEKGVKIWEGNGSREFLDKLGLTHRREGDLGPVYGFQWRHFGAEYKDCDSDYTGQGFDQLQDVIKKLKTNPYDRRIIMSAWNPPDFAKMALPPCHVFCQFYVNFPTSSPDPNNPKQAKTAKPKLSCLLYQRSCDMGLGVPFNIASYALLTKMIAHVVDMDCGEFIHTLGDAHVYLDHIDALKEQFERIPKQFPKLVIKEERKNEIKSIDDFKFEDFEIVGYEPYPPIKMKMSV
Another assay concerns the target T1, murine L1210 TS (Mus musculus, UniProt P07607).
T1 construct: host or cells: L1210
To be noted: relative to 10-propargyl-5,8-dideazafolic acid; cited from earlier work.

Setting [7] is: 3 days of continuous exposure, MTT.
The mark [8] stands for this setting: 5 days of continuous exposure, MTT.
[9] abbreviates: 25°C, pH 7.6, 25 microM dUMP, THF 5 to 150 microM, 100 micrograms/ml BSA, read-out: K1TS Human.
Where [10] appears, read: 25°C, pH 7.6, 25 microM dUMP, THF 5 to 150 microM, read-out: K1TS C.albicans.

What is called IC50 is the concentration that gives 50% inhibition. As a reminder, the inhibition is how much of the control response was suppressed. A low value points to a weak effect.

Where two headings read alike, the source gives them in different places.

Chain of Human thymidylate synthase (TS) (P04818 whole entry): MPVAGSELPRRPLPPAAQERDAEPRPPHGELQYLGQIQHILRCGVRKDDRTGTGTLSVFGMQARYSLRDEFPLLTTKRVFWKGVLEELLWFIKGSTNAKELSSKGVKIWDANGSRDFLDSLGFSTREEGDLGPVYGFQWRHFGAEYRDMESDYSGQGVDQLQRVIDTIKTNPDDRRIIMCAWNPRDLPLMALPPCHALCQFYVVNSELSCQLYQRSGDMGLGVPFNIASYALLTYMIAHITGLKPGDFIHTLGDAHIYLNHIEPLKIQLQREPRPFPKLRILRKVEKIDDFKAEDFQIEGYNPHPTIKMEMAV
Chain of E.coli thymidylate synthase (TS) (P0A884 whole entry): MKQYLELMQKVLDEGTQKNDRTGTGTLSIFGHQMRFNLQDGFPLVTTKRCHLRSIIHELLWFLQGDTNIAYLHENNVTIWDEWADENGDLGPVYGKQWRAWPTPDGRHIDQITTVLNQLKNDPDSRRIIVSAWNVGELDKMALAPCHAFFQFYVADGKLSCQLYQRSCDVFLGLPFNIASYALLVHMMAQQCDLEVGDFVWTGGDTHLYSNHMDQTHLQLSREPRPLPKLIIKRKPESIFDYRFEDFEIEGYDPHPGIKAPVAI
Chain of L. major thymidylate synthase (TS) (P07382 whole entry): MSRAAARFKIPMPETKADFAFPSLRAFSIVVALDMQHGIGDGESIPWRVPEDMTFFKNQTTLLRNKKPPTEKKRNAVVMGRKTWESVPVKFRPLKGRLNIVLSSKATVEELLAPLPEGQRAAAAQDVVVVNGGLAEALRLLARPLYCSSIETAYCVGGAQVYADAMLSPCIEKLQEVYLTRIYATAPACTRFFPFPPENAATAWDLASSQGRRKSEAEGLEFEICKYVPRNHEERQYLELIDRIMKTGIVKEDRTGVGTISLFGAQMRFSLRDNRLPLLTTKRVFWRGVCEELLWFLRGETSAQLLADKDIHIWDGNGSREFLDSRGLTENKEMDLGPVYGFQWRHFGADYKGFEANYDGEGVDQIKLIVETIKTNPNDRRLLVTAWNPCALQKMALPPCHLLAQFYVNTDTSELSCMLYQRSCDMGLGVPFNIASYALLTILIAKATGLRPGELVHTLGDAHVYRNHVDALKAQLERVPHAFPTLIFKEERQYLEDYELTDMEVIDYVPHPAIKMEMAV
T1 sequence (P07607 whole entry): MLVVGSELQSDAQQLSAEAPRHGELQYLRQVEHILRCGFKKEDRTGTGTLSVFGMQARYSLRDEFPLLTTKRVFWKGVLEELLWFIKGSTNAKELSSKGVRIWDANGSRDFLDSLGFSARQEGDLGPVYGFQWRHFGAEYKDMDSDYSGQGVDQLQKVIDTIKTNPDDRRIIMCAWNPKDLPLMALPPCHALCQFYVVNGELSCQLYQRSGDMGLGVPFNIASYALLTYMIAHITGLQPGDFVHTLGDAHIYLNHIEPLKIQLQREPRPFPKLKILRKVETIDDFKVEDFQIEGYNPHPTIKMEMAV

With `C#CCN(Cc1ccc2nc(C)[nH]c(=O)c2c1)c1ccc(C#N)c(C(F)(F)F)c1` [3-CF3,4-CN], the Ki in assay [1] turned out to be 0.036 ± 0.007 µM; in assay [4], 0.03 µM; in assay [5], 0.081 ± 0.057 µM. The 50% inhibitory concentration (IC50) in assay [2] (setting [7]) and in assay [3] (setting [8]) was over 2.8 µM throughout. Moreover, in assay [2] (at the highest concentration tested, printed in the same cell or footnote, 3 days), the “inhibition at this concentration, L1210” value worked out at 15%. In addition, the “inhibition at this concentration, CCRF-CEM” value (from here on “inhibition … CCRF-CEM”) in assay [3] is given as “no inhibition”.
With `C#CCN(Cc1ccc2nc(C)nc(O)c2c1)c1ccc([N+](=O)[O-])c(C(F)(F)F)c1` [3-CF3,4-NO2], the Ki in assay [1] came out at 0.078 ± 0.076 µM; in assay [5] (setting [9]), 0.2 ± 0.25 µM. Also, in assay [2] (setting [7]), the IC50 was over 5 µM.
Regarding `C#CCN(Cc1ccc2nc(C)nc(O)c2c1)c1ccc(S(N)(=O)=O)c(C(F)(F)F)c1` [3-CF3,4-SO2NH2], the Ki in assay [6] (setting [10]) was 1.9 ± 0.6 µM; in assay [1] it was 0.19 ± 0.12 µM; in assay [5] (setting [9]), 0.58 ± 0.74 µM.
With `C#CCN(Cc1ccc2nc(C)nc(O)c2c1)c1ccc(S(=O)(=O)NCC(=O)O)c(C(F)(F)F)c1` [3-CF3,4-SO2NHCH2COOH], the Ki in assay [1] was determined as 0.015 ± 0.003 µM; in assay [4] (25°C, pH 7.6, 25 microM dUMP, THF 5 to 150 microM, 100 micrograms/ml BSA, read-out: K1TS L. major), 0.013 µM.
With `C#CCN(Cc1ccc2nc(C)nc(O)c2c1)c1cccc(C(C)O)c1` (stereo not shown) [3-CH(OH)CH3], the Ki in assay [1] is 11.4 ± 9.8 µM; in assay [5] (setting [9]), 9.6 ± 6.9 µM. Besides, the IC50 in assay [2] (setting [7]) and in assay [3] (setting [8]) was over 50 µM each time.
For the compound `C#CCN(Cc1ccc2nc(C)nc(O)c2c1)c1ccc(C#N)c(Cl)c1` [3-Cl, 4-CN], the Ki amounted to 0.28 ± 0.19 µM in assay [6], 0.091 ± 0.052 µM in assay [1] and 0.087 ± 0.001 µM in assay [5]. The results for the IC50 in assay [2] (setting [7]) and in assay [3] (setting [8]) were 4.5 µM and over 6.8 µM, respectively.
With `C#CCN(Cc1ccc2nc(C)nc(O)c2c1)c1cccc(C#C)c1` [3-C≡CH], the Ki in assay [1] was found to be 32.9 ± 14.1 µM. Further, the IC50 in assay [2] (setting [7]) and in assay [3] (setting [8]) was over 2.4 µM in each case.
For `C#CCN(Cc1ccc2nc(C)nc(O)c2c1)c1cccc(Br)c1` [Compound 3-Br], the values for the Ki in assay [1] and in assay [5] (setting [9]) were 5.5 ± 1.3 µM and 3.6 ± 2.6 µM, respectively. Besides, the IC50 in assay [2] (setting [7]) and in assay [3] (setting [8]) was over 5.5 µM each time.
In the case of `C#CCN(Cc1ccc2nc(C)nc(O)c2c1)c1cccc(CC)c1` [Compound 3-C2H5], the values for the Ki in assay [1] and in assay [5] (setting [9]) were 24.5 ± 15.7 µM and 23.9 ± 20.8 µM, respectively. In addition, the IC50 in assay [2] (setting [7]) and in assay [3] (setting [8]) was over 5 µM each time.
In the case of `C#CCN(Cc1ccc2nc(C)[nH]c(=O)c2c1)c1cccc(C(F)(F)F)c1` [Compound 3-CF3], the IC50 in assay [2] (setting [7]) and in assay [3] (setting [8]) was over 4.3 µM in each case.
Regarding `C#CCN(Cc1ccc2nc(C)nc(O)c2c1)c1cccc(CO)c1` [Compound 3-CH2OH], the results for the Ki in assay [1] and in assay [5] (setting [9]) were 6.7 ± 5.4 µM and 1.2 ± 0.4 µM, respectively. In addition, the IC50 in assay [2] (setting [7]) is 48 µM; in assay [3] (setting [8]) it was over 55 µM.
Take `C#CCN(Cc1ccc2nc(C)nc(O)c2c1)c1cccc(C)c1` [Compound 3-CH3]: the Ki in assay [6] (setting [10]) amounted to 7.7 µM; in assay [1], 16.3 ± 9.8 µM; in assay [5] (setting [9]) it was 10.2 ± 10.2 µM. For the same compound, the IC50 in assay [2] (setting [7]) and in assay [3] (setting [8]) was over 5 µM throughout.
With `C#CCN(Cc1ccc2nc(C)nc(O)c2c1)c1cccc(I)c1` [Compound 3-I], the results for the Ki in assay [6] (setting [10]), in assay [1] and in assay [5] (setting [9]) were 15.5 ± 5.5 µM, 49 ± 42.3 µM and 4.7 ± 3.7 µM, respectively. Besides, the IC50 in assay [2] (setting [7]) and in assay [3] (setting [8]) was over 5.3 µM each time.
Turning to `C#CCN(Cc1ccc2nc(C)nc(O)c2c1)c1ccc(C#N)cc1` [Compound 4-CN], the Ki in assay [1] is 0.52 ± 0.46 µM; in assay [5] (setting [9]), 0.54 ± 0.74 µM. Moreover, the IC50 in assay [2] (setting [7]) and in assay [3] (setting [8]) was over 5 µM each time.
In the case of `C#CCN(Cc1ccc2nc(C)nc(O)c2c1)c1ccc(C(=O)c2ccccc2)cc1` [Compound 4-COPh], the Ki was 0.5 ± 0.11 µM in assay [1] and 0.7 ± 0.19 µM in assay [5] (setting [9]). Further, the IC50 was 6.8 µM in assay [2] (setting [7]) and over 8.5 µM in assay [3] (setting [8]).
With `C#CCN(Cc1ccc2nc(C)nc(O)c2c1)c1ccc(Cl)cc1` [Compound 4-Cl], the Ki worked out at 10.6 ± 4.7 µM in assay [6] (setting [10]), 5.9 ± 1.8 µM in assay [1] and 5.4 µM in assay [5] (setting [9]). Further, the concentration for half-maximal inhibition (IC50) in assay [2] (setting [7]) and in assay [3] (setting [8]) was over 4 µM in each case.
On to `C#CCN(Cc1ccc2nc(C)nc(O)c2c1)c1ccc([N+](=O)[O-])cc1` [Compound 4-NO2], for which the Ki in assay [6] (setting [10]) stood at 1.5 ± 1.1 µM; in assay [1], 0.12 ± 0.07 µM; in assay [5] (setting [9]), 0.25 ± 0.21 µM. In addition, the IC50 in assay [2] (setting [7]) is 4.5 µM; in assay [3] (setting [8]) it was over 4.8 µM.
In the case of `C#CCN(Cc1ccc2nc(C)[nH]c(=O)c2c1)c1ccc(S(N)(=O)=O)cc1` [Compound 4-SO2NH2], the Ki was found to be 1 µM in assay [6] (setting [10]), 0.25 ± 0.15 µM in assay [1] and 0.16 ± 0.12 µM in assay [5] (setting [9]). The IC50 is 20 µM in assay [2] (setting [7]) and over 25 µM in assay [3] (setting [8]). In addition, the “inhibition … CCRF-CEM” value in assay [3] is “no inhibition”.
For `C#CCN(Cc1ccc2nc(C)[nH]c(=O)c2c1)c1ccc(S(=O)(=O)c2ccccc2)cc1` [Compound 4-SO2Ph], the IC50 came to 1 µM in assay [2] and 2.5 µM in assay [3].
Consider `C#CCN(Cc1ccc2nc(C)[nH]c(=O)c2c1)c1ccc(S(=O)(=O)C(F)(F)F)cc1` [Compound A, N-((3,4-Dihydro-2-methyl-4-oxo-6-quinazolinyl)methyl)-N-(prop-2-ynyl)-4-trifluoromethanesulfonylaniline], for which the Ki came out at 0.015 µM in assay [1] and 0.075 ± 0.035 µM in assay [5] (setting [9]). Further, the IC50 in assay [2] (setting [7]) and in assay [3] (setting [8]) was over 2.75 µM throughout. Also, the “inhibition … CCRF-CEM” value in assay [3] was “no inhibition”.
On to `C#CCN(Cc1ccc2nc(C)[nH]c(=O)c2c1)c1ccc(S(=O)(=O)c2ccccc2)c(C(F)(F)F)c1` [Compound B, N-((3,4-Dihydro-2-methyl-4-oxo-6-quinazolinyl)methyl)-4-(phenylsulfonyl)-N-(prop-2-ynyl)-3-(trifluoromethyl)aniline], for which the IC50 is 3 µM in assay [2] (setting [7]) and 6 µM in assay [3] (setting [8]).
In turn, `C#CCN(Cc1ccc2nc(-c3ccccc3)[nH]c(=O)c2c1)c1ccc(Cl)cc1` [Compound C] yielded a Ki in assay [1] of 42.6 ± 23.1 µM.
In the case of `C#CCN(Cc1ccc2nc(C)nc(S)c2c1)c1cccc(C(F)(F)F)c1` [Compound D, N-((3,4-dihydro-2-methyl-4-thio-6-quinazolinyl)methyl)-N-(prop-2-ynyl)-3-trifluoromethylaniline], the Ki turned out to be 3.3 ± 1.4 µM in assay [1] and 17.5 ± 11 µM in assay [5] (setting [9]).
Compound `C#CCN(Cc1cccc2c(NC=O)coc12)c1ccc([N+](=O)[O-])cc1` [Compound E, N-((3-Formylamino-7-benzofuranyl)methyl)-N-(prop-2-ynyl)-4-nitroaniline] yielded a Ki in assay [1] of 70.9 ± 1.8 µM.
As for `C#CCN(Cc1ccc2nc(C)[nH]c(=O)c2c1)c1ccccc1` [—], the IC50 in assay [2] (setting [7]) and in assay [3] (setting [8]) was over 10 µM each time.
For “tetraglutamate of 10-propargyl-5,8-dideazafolic acid”, on murine L1210 TS, the “binds more tightly to murine L1210 TS than the monoglutamate parent compound” value is recorded as 119 fold.
